According to patent EP4631938A1, “NITROGEN-CONTAINING HETEROCYCLE WITH SEROTONIN RECEPTOR-BINDING ACTIVITY AND CARBOCYCLIC DERIVATIVE” (Shionogi & Co., Ltd, priority 2022, dated 2024):
Where two headings read alike, the source gives them in different places.

How the values were obtained:
[1] = biological target: T1, human recombinant 5-HT2A receptor (Homo sapiens, UniProt P28223); assay: Test Example 1-2: 5-HT2A receptor binding inhibition test ([3H]-Ketanserin; non-specific ligand Ketanserin)
T1 construct: expressed in transfected cells; host or cells: Jump-In HEK cells (membrane preparation)
Procedure, shortened: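 Ki values were derived from dose-response inhibition of [3H]-ketanserin binding; nonspecific binding was set with 500 µmol/L ketanserin, and Kd was set for each membrane lot from Scatchard saturation plots. Incubation lasted 1.5 h at room temperature (25 °C). Bound radioligand was harvested on Tris-HCl (pH 7.4)-presoaked filters and counted.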

[2] = biological target: T2, human recombinant 5-HT2C receptor (Homo sapiens, UniProt P28335); assay: Test Example 2: 5-HT2C receptor binding inhibition test ([3H]-Mesulergine; non-specific ligand Serotonin HCl)
T2 construct: expressed in transfected cells; host or cells: Jump-In HEK cells (membrane preparation)
T2 sequence (P28335 33-458): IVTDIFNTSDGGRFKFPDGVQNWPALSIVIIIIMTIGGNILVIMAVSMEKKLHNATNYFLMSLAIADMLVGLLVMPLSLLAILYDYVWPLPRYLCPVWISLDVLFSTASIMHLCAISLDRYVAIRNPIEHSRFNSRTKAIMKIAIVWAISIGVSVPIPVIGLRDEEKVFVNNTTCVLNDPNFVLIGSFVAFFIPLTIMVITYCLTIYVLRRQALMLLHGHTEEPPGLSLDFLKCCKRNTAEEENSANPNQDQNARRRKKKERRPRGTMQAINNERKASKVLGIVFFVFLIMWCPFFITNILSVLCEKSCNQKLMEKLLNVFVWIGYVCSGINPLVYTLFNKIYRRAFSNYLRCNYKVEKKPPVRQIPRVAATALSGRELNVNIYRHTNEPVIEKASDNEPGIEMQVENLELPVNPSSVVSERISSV
Procedure, shortened: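 Ki values come from dose-response curves of [3H]-mesulergine displacement from human 5-HT2C membranes after 2 h at 37°C, scored by scintillation counting of filter-bound radioactivity. Serotonin HCl (500 µmol/L) set non-specific binding; Kd per membrane lot was taken from Scatchard plots.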

[3] = [3H]-Mesulergine, non-specific binding with 500 µmol/L Serotonin HCl, 37°C, 2 hours
[4] = [3H]-Ketanserin, non-specific binding with 500 µmol/L Ketanserin, room temperature (25°C), 1.5 hours, read-out: h 5-HT2A Ki
[5] = human serotonin 5-HT2C receptor binding activity

T1 sequence (P28223 whole entry): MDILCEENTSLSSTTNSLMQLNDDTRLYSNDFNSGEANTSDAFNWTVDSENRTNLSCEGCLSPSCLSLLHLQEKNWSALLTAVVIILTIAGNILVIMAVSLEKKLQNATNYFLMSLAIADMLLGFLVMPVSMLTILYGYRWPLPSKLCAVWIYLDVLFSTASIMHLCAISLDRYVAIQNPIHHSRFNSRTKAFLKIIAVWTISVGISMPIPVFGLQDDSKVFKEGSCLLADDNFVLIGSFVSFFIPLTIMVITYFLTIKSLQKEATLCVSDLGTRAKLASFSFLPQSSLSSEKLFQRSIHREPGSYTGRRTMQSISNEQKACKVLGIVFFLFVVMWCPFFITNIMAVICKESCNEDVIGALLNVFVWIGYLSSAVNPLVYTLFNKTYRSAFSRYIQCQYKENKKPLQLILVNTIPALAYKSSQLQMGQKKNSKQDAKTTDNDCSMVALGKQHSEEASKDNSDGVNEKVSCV

Ki [1, 4] [nM] | Ki [2, 5] [nM] | SMILES | Ki [1] [nM] | Ki [2, 3] [nM]
 |  | Cn1ncc(Br)c1-c1cc(Nc2ncc(C(F)(F)F)cc2F)ccc1OCCO [Compound I-006] | 0.253 | 0.223
0.338 |  | Cc1cnn(C)c1-c1cc(Nc2ncc(C(F)(F)F)cc2F)ccc1OCCO [Compound I-008] |  | 1.05
0.271 |  | Cn1ncc(F)c1-c1cc(Nc2ncc(C(F)(F)F)cc2F)cnc1OCCO [Compound I-127] |  | 
1.49 | 1.9 | COCc1nc(C)c(-c2cc(Nc3ncc(OC(F)(F)F)cc3Cl)ncc2OCCO)c(C)n1 [Compound I-200] |  | 
1.74 | 1.62 | COCc1nc(C)c(-c2nc(Nc3ccc(C(F)(F)F)c(C)n3)c(F)cc2OCCO)c(C)n1 [Compound I-247] |  | 
2.24 | 2.74 | Cc1nc(COC2COC2)nc(C)c1-c1cc(Nc2ncc(C(F)(F)F)cc2Cl)ncc1OCCO [Compound I-376] |  | 
2.43 | 1.51 | Cc1nc(CO[C@@H]2CCOC2)nc(C)c1-c1cc(Nc2ncc(C(F)(F)F)cc2Cl)ncc1OCCO [Compound I-378] |  | 
